# pIC50: −log10 of the molar value.
# Tests used:
# NCI-H1975 [1] = assay: Antitumor activity against human NCI-H1975 cells harboring EGFR L858R/[…] double mutant xenografted in SCID mouse assessed as tumor growth inhibition at 5 mg/kg/day, po qd for 7 days relative to control; format: functional
# NCI-H1975 [2] = assay: Antitumor activity against human NCI-H1975 cells harboring EGFR L858R/[…] double mutant xenografted in SCID mouse assessed as tumor growth inhibition at 10 mg/kg/day, po qd for 7 days relative to control; format: functional; conditions: for inhibition in vivo at 10 mg/kg/day: Mus musculus, NCI-H1975, 168 h, read-out: TGI
# A-431 [3] = assay: Antitumor activity against human A431 cells xenografted in SCID mouse assessed as tumor growth inhibition at 20 mg/kg/day, po qd for 7 days relative to control; format: functional; conditions: A-431, 168 h, read-out: TGI
# NCI-H1975 [4] = assay: Antitumor activity against human NCI-H1975 cells harboring EGFR L858R/[…] double mutant xenografted in SCID mouse assessed as tumor growth inhibition at […], po qd for 7 days relative to control; format: functional
# A-431 [5] = assay: Antitumor activity against human A431 cells xenografted in SCID mouse assessed as tumor growth inhibition at 5 mg/kg/day, po qd for 7 days relative to control; format: functional
# A-431 [6] = assay: Antitumor activity against human A431 cells xenografted in SCID mouse assessed as tumor growth inhibition at […], po qd for 7 days relative to control; format: functional
# NCI-H1975 [7] = assay: Antitumor activity against human NCI-H1975 cells harboring EGFR L858R/[…] double mutant xenografted in SCID mouse assessed as tumor growth inhibition at 20 mg/kg/day, po qd for 7 days relative to control; format: functional; conditions: NCI-H1975, 168 h, read-out: TGI
# A-431 [8] = assay: Antitumor activity against human A431 cells xenografted in SCID mouse assessed as tumor growth inhibition at 10 mg/kg/day, po qd for 7 days relative to control; format: functional; conditions: for inhibition in vivo at 10 mg/kg/day: Mus musculus, A-431, 168 h, read-out: TGI
# Mus musculus [9] = assay: Inhibition of EGFR L858R/[…] double mutant phosphorylation in human NCI-H1975 cells xenografted in SCID mouse at 10 mg/kg, po measured 30 hrs post dose; format: functional; conditions: NCI-H1975, 30 h
# Mus musculus [10] = assay: Inhibition of EGFR exon 19 deletion activating mutant phosphorylation in human PC9 cells xenografted in SCID mouse at 10 mg/kg, po measured 6 hrs post dose; format: functional; conditions: PC-9, 6 h
# Mus musculus [11] = assay: Inhibition of EGFR L858R/[…] double mutant phosphorylation in human NCI-H1975 cells xenografted in SCID mouse at 10 mg/kg, po measured 1 hr post dose; format: functional; conditions: NCI-H1975, 1 h
# Mus musculus [12] = assay: Inhibition of EGFR exon 19 deletion activating mutant phosphorylation in human PC9 cells xenografted in SCID mouse at 10 mg/kg, po measured 16 hrs post dose; format: functional; conditions: PC-9, 16 h
# Mus musculus [13] = assay: Inhibition of EGFR exon 19 deletion activating mutant phosphorylation in human PC9 cells xenografted in SCID mouse at 10 mg/kg, po measured 1 hr post dose; format: functional; conditions: PC-9, 1 h
# Mus musculus [14] = assay: Inhibition of EGFR L858R/[…] double mutant phosphorylation in human NCI-H1975 cells xenografted in SCID mouse at 10 mg/kg, po measured 24 hrs post dose; format: functional; conditions: NCI-H1975, 24 h
# [15] = biological target: T1, Insulin-like growth factor 1 receptor (Homo sapiens, UniProt P08069); assay: Inhibition of IGF1R (unknown origin)
# Insulin receptor [16] = biological target: T2, Insulin receptor (Homo sapiens, UniProt P06213); assay: Inhibition of INSR (unknown origin) at 1 uM relative to control
# Mus musculus [17] = assay: Inhibition of EGFR exon 19 deletion activating mutant phosphorylation in human PC9 cells xenografted in SCID mouse at 10 mg/kg, po measured 24 hrs post dose; format: functional; conditions: PC-9, 24 h
# Mus musculus [18] = assay: Inhibition of EGFR L858R/[…] double mutant phosphorylation in human NCI-H1975 cells xenografted in SCID mouse at 10 mg/kg, po measured 16 hrs post dose; format: functional; conditions: NCI-H1975, 16 h
# Mus musculus [19] = assay: Inhibition of EGFR L858R/[…] double mutant phosphorylation in human NCI-H1975 cells xenografted in SCID mouse at 10 mg/kg, po measured 6 hrs post dose; format: functional; conditions: NCI-H1975, 6 h
# Mus musculus [20] = assay: Inhibition of EGFR exon 19 deletion activating mutant phosphorylation in human PC9 cells xenografted in SCID mouse at 10 mg/kg, po measured 30 hrs post dose; format: functional; conditions: PC-9, 30 h
# [21] = biological target: T1, Insulin-like growth factor 1 receptor; assay: Inhibition of IGF1R (unknown origin) at 1 uM relative to control
# Insulin receptor [22] = biological target: T2, Insulin receptor; assay: Inhibition of INSR (unknown origin)
# [23] = Antitumor activity against human PC9 cells harboring EGFR exon 19 deletion activating mutant xenografted in SCID mouse assessed as tumor growth inhibition at 10 mg/kg/day, po qd for 7 days relative to control; format: functional, PC-9
# [24] = Thermodynamic solubility of the compound at pH 7.4; format: physicochemical; conditions: buffer, read-out: Therm_solubility
# [25] = Intrinsic clearance in human hepatocytes measured per 10^6 cells; format: ADME, cell-based, Hepatocyte; conditions: read-out: CLH
# [26] = Lipophilicity, log D of the compound at pH 7.4; format: physicochemical; conditions: buffer
# Plasma [27] = assay: Drug metabolism in mouse plasma assessed as dealkylation of compound; format: ADME, cell-free
# NCI-H1975 [28] = assay: Cytotoxicity against human NCI-H1975 cells harboring EGFR L858R/[…] double mutant assessed as growth inhibition after 72 hrs by SYTOX green nucleic acid staining-based fluorescence assay; format: functional
# Rattus norvegicus [29] = assay: Toxicity in rat at 200 mg/kg, po as single dose measured over 24 hrs; format: organism-based; parameters: dose 200 mg/kg, route oral; conditions: in vivo
# [30] = Oral bioavailability in Han Wistar rat at 5 mg/kg; format: ADME, organism-based; conditions: in vivo
# [31] = Cmax in mouse at 10 mg/kg, po; format: ADME, organism-based; parameters: dose 10 mg/kg, route oral; conditions: in vivo
# [32] = Cytotoxicity against human PC9 cells harboring EGFR exon 19 deletion activating mutant assessed as growth inhibition after 72 hrs by SYTOX green nucleic acid staining-based fluorescence assay; format: functional, PC-9
# [33] = Cytotoxicity against human Calu3 cells assessed as growth inhibition after 72 hrs by SYTOX green nucleic acid staining-based fluorescence assay; format: functional, Calu-3
# [34] = Fraction unbound in Han Wistar rat plasma; format: ADME, cell-free
# [35] = Half life of the compound by GSH reduction assay; format: physicochemical; conditions: glutathione (GSH)
# Plasma [36] = assay: (§1) Unbound fraction in human plasma; format: ADME, cell-free
# Plasma [37] = assay: Drug metabolism in rat plasma assessed as dealkylation of compound; format: ADME, cell-free
# Plasma [38] = assay: Drug metabolism in mouse plasma assessed as loss of indole N-methyl group; format: ADME, cell-free
# Rattus norvegicus [39] = assay: Clearance in iv dosed Han Wistar rat; format: ADME, organism-based; conditions: in vivo
# Rattus norvegicus [40] = assay: Toxicity in rat assessed as hyperglycemia at 200 mg/kg, po as single dose measured over 24 hrs; format: organism-based; parameters: dose 200 mg/kg, route oral; conditions: in vivo
# Cavia porcellus = assay: Cardiotoxicity in anesthetized guinea pig assessed as QT prolongation at fCmax concentration; format: toxicity, organism-based; conditions: in vivo
# [41] = Intrinsic clearance in rat hepatocytes measured per 10^6 cells; format: ADME, cell-based, Hepatocyte; conditions: read-out: CLH
# Plasma [42] = assay: Drug metabolism in rat plasma assessed as loss of indole N-methyl group; format: ADME, cell-free
# [43] = Unbound fraction in nude mouse plasma; format: ADME, cell-free
# Plasma [44] = assay: Drug metabolism in rat plasma treated with N-[2-(2-Dimethylaminoethylmethylamino)-4-methoxy-5-[[4-(1-methylindol-3-yl)pyrimidin-2-yl]amino]phenyl]prop-2-enamide; format: ADME, cell-free
# [45] = biological target: Voltage-gated inwardly rectifying potassium channel KCNH2 (Homo sapiens, UniProt Q12809); assay: Inhibition of human ERG
# Plasma [46] = assay: Drug metabolism in mouse plasma treated with N-[2-(2-Dimethylaminoethylmethylamino)-4-methoxy-5-[[4-(1-methylindol-3-yl)pyrimidin-2-yl]amino]phenyl]prop-2-enamide; format: ADME, cell-free
# [47] = as §1; format: ADME, cell-free
# T1 sequence (P08069 31-736 limits assumed): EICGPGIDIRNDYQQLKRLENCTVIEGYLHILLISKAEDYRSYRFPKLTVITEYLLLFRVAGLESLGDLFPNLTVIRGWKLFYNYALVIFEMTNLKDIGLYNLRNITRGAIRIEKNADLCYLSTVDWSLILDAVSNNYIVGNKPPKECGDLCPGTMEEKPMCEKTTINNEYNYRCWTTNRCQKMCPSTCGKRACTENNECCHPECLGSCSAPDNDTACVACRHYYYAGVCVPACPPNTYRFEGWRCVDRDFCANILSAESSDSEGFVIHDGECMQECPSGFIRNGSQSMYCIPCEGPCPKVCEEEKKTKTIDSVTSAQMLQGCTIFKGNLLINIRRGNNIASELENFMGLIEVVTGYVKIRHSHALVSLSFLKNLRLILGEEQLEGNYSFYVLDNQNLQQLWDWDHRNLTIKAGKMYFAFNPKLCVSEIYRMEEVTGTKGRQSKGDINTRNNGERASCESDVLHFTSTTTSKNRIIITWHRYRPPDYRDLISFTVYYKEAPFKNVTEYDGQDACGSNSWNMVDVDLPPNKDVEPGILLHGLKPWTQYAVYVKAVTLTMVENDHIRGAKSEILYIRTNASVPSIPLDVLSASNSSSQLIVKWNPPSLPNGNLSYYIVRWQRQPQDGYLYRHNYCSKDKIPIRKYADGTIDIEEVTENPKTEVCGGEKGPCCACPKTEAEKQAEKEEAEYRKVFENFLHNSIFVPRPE
# T1 sequence (P08069 741-1367 limits assumed): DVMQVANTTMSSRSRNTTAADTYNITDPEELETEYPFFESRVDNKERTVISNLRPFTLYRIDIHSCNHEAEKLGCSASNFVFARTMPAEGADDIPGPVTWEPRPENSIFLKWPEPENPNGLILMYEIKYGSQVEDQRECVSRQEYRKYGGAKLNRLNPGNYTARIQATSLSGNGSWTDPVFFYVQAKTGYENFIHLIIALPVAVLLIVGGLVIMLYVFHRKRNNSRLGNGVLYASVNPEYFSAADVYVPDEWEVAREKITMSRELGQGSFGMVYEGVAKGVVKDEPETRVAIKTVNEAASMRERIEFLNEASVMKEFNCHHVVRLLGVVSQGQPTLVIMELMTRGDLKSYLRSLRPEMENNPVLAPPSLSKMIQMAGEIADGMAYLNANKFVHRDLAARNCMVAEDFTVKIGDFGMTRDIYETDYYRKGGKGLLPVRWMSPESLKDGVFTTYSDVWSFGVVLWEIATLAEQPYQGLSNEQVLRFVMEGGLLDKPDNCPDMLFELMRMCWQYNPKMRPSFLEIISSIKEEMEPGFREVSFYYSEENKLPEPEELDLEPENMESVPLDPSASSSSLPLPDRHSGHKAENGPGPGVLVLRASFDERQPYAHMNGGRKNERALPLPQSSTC
# T2 sequence (P06213 28-758 limits assumed): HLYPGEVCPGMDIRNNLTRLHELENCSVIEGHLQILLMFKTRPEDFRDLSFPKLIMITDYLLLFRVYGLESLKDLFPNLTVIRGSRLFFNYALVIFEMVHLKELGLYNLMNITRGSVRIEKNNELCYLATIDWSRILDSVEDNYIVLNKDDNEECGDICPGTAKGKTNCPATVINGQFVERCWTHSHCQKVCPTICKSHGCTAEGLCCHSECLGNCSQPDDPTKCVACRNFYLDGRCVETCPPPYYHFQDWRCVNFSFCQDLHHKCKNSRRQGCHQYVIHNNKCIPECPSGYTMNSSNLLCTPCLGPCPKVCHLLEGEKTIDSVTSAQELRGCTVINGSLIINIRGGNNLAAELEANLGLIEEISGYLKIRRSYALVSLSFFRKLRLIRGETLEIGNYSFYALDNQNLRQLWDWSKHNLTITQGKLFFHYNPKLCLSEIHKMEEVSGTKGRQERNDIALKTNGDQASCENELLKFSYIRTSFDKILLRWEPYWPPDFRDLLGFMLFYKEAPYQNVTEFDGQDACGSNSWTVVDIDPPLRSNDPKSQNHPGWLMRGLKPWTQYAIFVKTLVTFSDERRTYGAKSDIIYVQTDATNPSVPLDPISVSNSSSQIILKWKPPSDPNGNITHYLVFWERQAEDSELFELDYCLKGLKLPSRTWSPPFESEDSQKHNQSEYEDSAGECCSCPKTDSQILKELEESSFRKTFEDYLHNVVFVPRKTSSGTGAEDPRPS
# T2 sequence (P06213 763-1382 limits assumed): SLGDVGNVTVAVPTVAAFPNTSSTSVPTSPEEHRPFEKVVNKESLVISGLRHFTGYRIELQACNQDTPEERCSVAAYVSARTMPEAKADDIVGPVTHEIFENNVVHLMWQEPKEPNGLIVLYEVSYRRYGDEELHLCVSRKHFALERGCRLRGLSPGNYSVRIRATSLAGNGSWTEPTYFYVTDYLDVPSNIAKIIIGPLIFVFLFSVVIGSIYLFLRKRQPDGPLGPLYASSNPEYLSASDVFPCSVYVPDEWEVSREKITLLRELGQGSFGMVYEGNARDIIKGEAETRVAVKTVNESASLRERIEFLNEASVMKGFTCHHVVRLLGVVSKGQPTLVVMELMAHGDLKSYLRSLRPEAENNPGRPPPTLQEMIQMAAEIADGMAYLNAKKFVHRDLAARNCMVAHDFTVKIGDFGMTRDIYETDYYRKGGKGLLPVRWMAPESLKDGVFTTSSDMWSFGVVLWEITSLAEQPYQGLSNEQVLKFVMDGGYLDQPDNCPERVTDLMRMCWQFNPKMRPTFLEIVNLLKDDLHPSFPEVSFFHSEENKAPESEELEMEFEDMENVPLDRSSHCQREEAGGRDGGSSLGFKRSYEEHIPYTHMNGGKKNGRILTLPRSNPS
# Sequence of Voltage-gated inwardly rectifying potassium channel KCNH2 (Q12809 whole entry): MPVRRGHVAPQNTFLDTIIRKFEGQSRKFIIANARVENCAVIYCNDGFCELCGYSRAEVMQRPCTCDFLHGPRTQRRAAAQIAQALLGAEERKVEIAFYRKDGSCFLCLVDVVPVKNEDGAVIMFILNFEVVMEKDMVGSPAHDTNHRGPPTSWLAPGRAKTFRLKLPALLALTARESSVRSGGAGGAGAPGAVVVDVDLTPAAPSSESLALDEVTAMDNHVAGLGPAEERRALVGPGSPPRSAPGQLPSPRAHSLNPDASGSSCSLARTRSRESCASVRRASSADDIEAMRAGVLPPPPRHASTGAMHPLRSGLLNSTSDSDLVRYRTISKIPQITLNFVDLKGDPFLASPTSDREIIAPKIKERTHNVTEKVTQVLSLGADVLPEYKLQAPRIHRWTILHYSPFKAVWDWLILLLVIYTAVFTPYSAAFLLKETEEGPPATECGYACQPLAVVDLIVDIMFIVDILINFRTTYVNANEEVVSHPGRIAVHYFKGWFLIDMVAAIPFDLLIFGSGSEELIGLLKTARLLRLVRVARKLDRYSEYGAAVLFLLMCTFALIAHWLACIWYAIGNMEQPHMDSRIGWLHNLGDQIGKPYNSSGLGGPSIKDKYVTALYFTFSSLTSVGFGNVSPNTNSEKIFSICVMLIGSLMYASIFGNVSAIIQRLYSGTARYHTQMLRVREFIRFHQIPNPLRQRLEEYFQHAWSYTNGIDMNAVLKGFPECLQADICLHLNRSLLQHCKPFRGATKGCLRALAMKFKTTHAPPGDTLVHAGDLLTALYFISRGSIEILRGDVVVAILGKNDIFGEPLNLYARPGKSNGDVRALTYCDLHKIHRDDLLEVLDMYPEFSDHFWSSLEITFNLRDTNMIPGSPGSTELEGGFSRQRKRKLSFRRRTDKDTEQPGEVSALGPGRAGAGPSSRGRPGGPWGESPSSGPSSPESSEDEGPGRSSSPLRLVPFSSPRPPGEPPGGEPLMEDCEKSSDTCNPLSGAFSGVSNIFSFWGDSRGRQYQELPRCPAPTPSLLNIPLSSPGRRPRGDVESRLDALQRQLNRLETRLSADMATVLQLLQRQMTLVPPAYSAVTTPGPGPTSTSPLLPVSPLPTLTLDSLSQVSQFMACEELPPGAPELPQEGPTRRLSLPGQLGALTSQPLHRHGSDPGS
compound,measurement,setting,value
CN(C)C/C=C/C(=O)Nc1cc2c(Nc3ccc(F)c(Cl)c3)ncnc2cc1O[C@H]1CCOC1 [AFATINIB],inhibition in vivo at 5 mg/kg/day,"NCI-H1975 [1]; Mus musculus, NCI-H1975, 168 h, read-out: TGI",23%
same,inhibition in vivo at 10 mg/kg/day,NCI-H1975 [2],25%
same,inhibition in vivo at 20 mg/kg/day,A-431 [3],158%
same,inhibition in vivo at […],"NCI-H1975 [4]; NCI-H1975, 168 h, read-out: TGI",16%
same,inhibition in vivo at 5 mg/kg/day,"A-431 [5]; Mus musculus, A-431, 168 h, read-out: TGI",84%
same,inhibition in vivo at […],"A-431 [6]; A-431, 168 h, read-out: TGI",84%
same,inhibition in vivo at 20 mg/kg/day,NCI-H1975 [7],74%
same,inhibition in vivo at 10 mg/kg/day,A-431 [8],131%
C=CC(=O)Nc1cc(Nc2ncc(Cl)c(-c3cnn4ccccc34)n2)c(OC)cc1N(C)CCN(C)C,inhibition in vivo at 10 mg/kg,Mus musculus [9],80%
same,inhibition in vivo at 10 mg/kg,Mus musculus [10],83%
same,inhibition in vivo at 10 mg/kg/day,NCI-H1975 [2],130%
same,inhibition in vivo at 10 mg/kg,Mus musculus [11],89%
same,inhibition in vivo at 10 mg/kg,Mus musculus [12],60%
same,inhibition in vivo at 10 mg/kg,Mus musculus [13],30%
same,inhibition in vivo at 10 mg/kg,Mus musculus [14],93%
same,pIC50,[15],8.22
same,inhibition,Insulin receptor [16],99%
same,inhibition in vivo at 10 mg/kg,Mus musculus [17],38%
same,inhibition in vivo at 10 mg/kg,Mus musculus [18],94%
same,inhibition in vivo at 10 mg/kg,Mus musculus [19],100%
same,inhibition in vivo at 10 mg/kg,Mus musculus [20],10%
same,inhibition,[21],97%
same,pIC50,Insulin receptor [22],8.05
same,inhibition in vivo at 10 mg/kg/day,"[23]; Homo sapiens, PC-9, 168 h, read-out: TGI",243%
same,inhibition in vivo at 10 mg/kg/day,A-431 [8],35%
C=CC(=O)Nc1cc(Nc2nccc(-c3cn(C)c4ccccc34)n2)c(OC)cc1N(C)CCN(C)C [OSIMERTINIB],solubility thermodynamic,[24],7 µM
same,TGI,NCI-H1975 [1],134%
same,hepatocyte CLint,[25],3.4 µL/min/1e6 cells
same,logD,[26],3.4
same,Drug metabolism,Plasma [27],metabolite_detected
same,TGI,NCI-H1975 [2],148%
same,Activity,Rattus norvegicus [29],Non-toxic
same,bioavailability,[30],45%
same,Cmax,[31],380 nM
same,GI50,[32],23 nM
same,GI50,[33],264 nM
same,fraction unbound,[34],0.032
same,half-life,[35],2.02 h
same,TGI,NCI-H1975 [4],120%
same,TGI,A-431 [5],79%
same,Fu,Plasma [36],2.9%
same,pIC50,[15],5.54
same,TGI,A-431 [6],65%
same,Drug metabolism,Plasma [37],metabolite_detected
same,Drug metabolism,Plasma [38],metabolite_detected
same,clearance,Rattus norvegicus [39],45 mL/min/kg
same,Activity,Rattus norvegicus [40],Non-toxic
same,Activity,Cavia porcellus,Non-toxic
same,pIC50,Insulin receptor [22],6.04
same,hepatocyte CLint,[41],27 µL/min/1e6 cells
same,Drug metabolism,Plasma [42],metabolite_detected
same,TGI,[23],267%
same,TGI,A-431 [8],102%
same,fraction unbound,[43],0.034
C=CC(=O)Nc1cc(Nc2nccc(-c3cn(C)c4ccccc34)n2)c(OC)cc1N(C)CCNC,solubility thermodynamic,[24],14 µM
same,hepatocyte CLint,[25],< 3 µL/min/1e6 cells
same,Drug metabolism,Plasma [44],metabolite_detected
same,logD,[26],2.3
same,GI50,"NCI-H1975 [28]; Homo sapiens, NCI-H1975, 72 h",19 nM
same,GI50,"[32]; Homo sapiens, PC-9, 72 h",15 nM
same,GI50,"[33]; Homo sapiens, Calu-3, 72 h",537 nM
same,fraction unbound,[34],0.023
same,pIC50,[45],< 4.48
same,Drug metabolism,Plasma [46],metabolite_detected
same,fraction unbound,[47],0.039
same,pIC50,[15],5.80
same,hepatocyte CLint,[41],50 µL/min/1e6 cells
same,fraction unbound,[43],0.0105
